According to US7220743B2, “Heterocyclic CB1 receptor antagonists” (Hoffmann-La Roche Inc., priority 2005, dated 2007):

Molecular target: T1, cannabinoid CB1 receptors (Homo sapiens, UniProt P21554)
T1 construct: expressed in transfected cells; host or cells: HEK cells, transient, Semliki Forest Virus system; membrane preparation
Assay: Affinity for cannabinoid CB1 receptors, [3H]-CP-55,940 radioligand binding on HEK cell membranes
Settings: CB1 receptor affinity, [3H]-CP-55,940, HEK membranes
Description: The affinity of the compounds of the invention for cannabinoid CB1 receptors was determined using membrane preparations of human embryonic kidney (HEK) cells in which the human cannabis […] receptor is transiently transfected using the Semliki Forest Virus system in conjunction with [3H]-CP-55,940 as radioligand. After incubation of a freshly prepared cell membrane preparation with the [3H]-ligand, with or without addition of compounds of the invention, separation of bound and free ligand was performed by filtration over glassfiber filters. Radioactivity on the filter was measured by liquid scintillation counting.

T1 sequence (P21554 whole entry): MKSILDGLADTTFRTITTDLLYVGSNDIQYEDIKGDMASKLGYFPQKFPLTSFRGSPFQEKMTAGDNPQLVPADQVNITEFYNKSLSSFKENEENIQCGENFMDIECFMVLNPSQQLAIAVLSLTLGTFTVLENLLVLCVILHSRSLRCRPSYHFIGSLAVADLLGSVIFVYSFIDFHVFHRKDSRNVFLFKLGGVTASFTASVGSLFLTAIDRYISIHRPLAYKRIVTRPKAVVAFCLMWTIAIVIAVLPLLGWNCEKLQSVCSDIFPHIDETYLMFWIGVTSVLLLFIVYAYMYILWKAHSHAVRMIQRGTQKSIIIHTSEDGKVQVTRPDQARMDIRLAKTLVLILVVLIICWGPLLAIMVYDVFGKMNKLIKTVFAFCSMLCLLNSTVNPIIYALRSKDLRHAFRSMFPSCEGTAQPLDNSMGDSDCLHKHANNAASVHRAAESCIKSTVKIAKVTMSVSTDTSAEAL

SMILES: O=C(c1cc2c(cc1F)OC1(O2)c2ccccc2C=Cc2ccccc21)N1CCOCC1 [Example 3, 4-[(6-fluoro-spiro[1,3-benzodioxole-2,5′-[5H]dibenzo[a,d]cyclohepten]-5-yl)carbonyl]-morpholine]
- IC50: 6 nM
